According to PubChem BioAssay (NCI):
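Dose response: 5 concentrations. Exposure: 48 h. Format: 96-well plates. Endpoint: linear interpolation; highest concentration if not reached. At the TGI there is no net growth.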

How the values were obtained:
Assay in all cases: NCI anticancer screen, dose series, 48 h
MDA-MB-231 breast = tested on: MDA-MB-231 breast
IGROV1 ovarian = tested on: IGROV1 ovarian
SN12C renal = tested on: SN12C renal
OVCAR-3 ovarian = tested on: OVCAR-3 ovarian
MOLT-4 leukemia = tested on: MOLT-4 leukemia
CCRF-CEM leukemia = tested on: CCRF-CEM leukemia
A498 renal = tested on: A498 renal
T-47D breast = tested on: T-47D breast
UACC-62 melanoma = tested on: UACC-62 melanoma
SK-MEL-5 melanoma = tested on: SK-MEL-5 melanoma
NCI/ADR-RES ovarian = tested on: NCI/ADR-RES ovarian
HCT-15 colon = tested on: HCT-15 colon
HL-60(TB) leukemia = tested on: HL-60(TB) leukemia
SF-539 CNS = tested on: SF-539 CNS
MCF7 breast = tested on: MCF7 breast
OVCAR-5 ovarian = tested on: OVCAR-5 ovarian
SK-MEL-2 melanoma = tested on: SK-MEL-2 melanoma
UACC-257 melanoma = tested on: UACC-257 melanoma
MDA-MB-435 = tested on: MDA-MB-435
BT-549 breast = tested on: BT-549 breast
PC-3 prostate = tested on: PC-3 prostate
HT29 colon = tested on: HT29 colon
ACHN renal = tested on: ACHN renal
786-0 renal = tested on: 786-0 renal
SK-OV-3 ovarian = tested on: SK-OV-3 ovarian
HOP-62 NSCLC = tested on: HOP-62 NSCLC
M14 melanoma = tested on: M14 melanoma
SNB-19 CNS = tested on: SNB-19 CNS
DU-145 prostate = tested on: DU-145 prostate
COLO 205 colon = tested on: COLO 205 colon
K-562 leukemia = tested on: K-562 leukemia
SW-620 colon = tested on: SW-620 colon
OVCAR-8 ovarian = tested on: OVCAR-8 ovarian
TK-10 renal = tested on: TK-10 renal
KM12 colon = tested on: KM12 colon
NCI-H460 lung = tested on: NCI-H460 lung
SF-268 CNS = tested on: SF-268 CNS
HCC-2998 colon = tested on: HCC-2998 colon
RPMI-8226 leukemia = tested on: RPMI-8226 leukemia
CAKI-1 renal = tested on: CAKI-1 renal
U251 CNS = tested on: U251 CNS
SNB-75 CNS = tested on: SNB-75 CNS
A549 NSCLC = tested on: A549 NSCLC
MDA-N = tested on: MDA-N
UO-31 renal = tested on: UO-31 renal
SK-MEL-28 melanoma = tested on: SK-MEL-28 melanoma
RXF 393 renal = tested on: RXF 393 renal
MALME-3M melanoma = tested on: MALME-3M melanoma
SR leukemia = tested on: SR leukemia
HCT-116 colon = tested on: HCT-116 colon
EKVX NSCLC = tested on: EKVX NSCLC
NCI-H226 lung = tested on: NCI-H226 lung
NCI-H522 lung = tested on: NCI-H522 lung
HOP-92 NSCLC = tested on: HOP-92 NSCLC
OVCAR-4 ovarian = tested on: OVCAR-4 ovarian
NCI-H23 lung = tested on: NCI-H23 lung
SF-295 CNS = tested on: SF-295 CNS

Compound `Cc1cc2c(s1)C(N)CC2=O` (configuration not stated) has a TGI (MDA-MB-231 breast) greater than 100 µM, a TGI (IGROV1 ovarian) greater than 100 µM and a TGI (SN12C renal) greater than 100 µM. It also gave a TGI (OVCAR-3 ovarian) greater than 100 µM, a TGI (MOLT-4 leukemia) greater than 100 µM and a TGI (CCRF-CEM leukemia) greater than 100 µM. The TGI (A498 renal) was greater than 100 µM, the TGI (T-47D breast) was greater than 100 µM and the TGI (UACC-62 melanoma) was greater than 100 µM. For the same compound, the TGI (SK-MEL-5 melanoma) was greater than 100 µM, the TGI (NCI/ADR-RES ovarian) was greater than 100 µM and the TGI (HCT-15 colon) was greater than 100 µM. It also gave a TGI (HL-60(TB) leukemia) greater than 100 µM, a TGI (SF-539 CNS) greater than 100 µM and a TGI (MCF7 breast) greater than 100 µM. It also gave a TGI (OVCAR-5 ovarian) greater than 100 µM, a TGI (SK-MEL-2 melanoma) greater than 100 µM and a TGI (UACC-257 melanoma) greater than 100 µM. For the same compound, the TGI (MDA-MB-435) was greater than 100 µM, the TGI (BT-549 breast) was greater than 100 µM and the TGI (PC-3 prostate) was greater than 100 µM. It also gave a TGI (HT29 colon) greater than 100 µM, a TGI (ACHN renal) greater than 100 µM and a TGI (786-0 renal) greater than 100 µM. It also gave a TGI (SK-OV-3 ovarian) greater than 100 µM, a TGI (HOP-62 NSCLC) greater than 100 µM and a TGI (M14 melanoma) greater than 100 µM. For the same compound, the TGI (SNB-19 CNS) was greater than 100 µM, the TGI (DU-145 prostate) was greater than 100 µM and the TGI (COLO 205 colon) was greater than 100 µM. For the same compound, the TGI (K-562 leukemia) was greater than 100 µM, the TGI (SW-620 colon) was greater than 100 µM and the TGI (OVCAR-8 ovarian) was greater than 100 µM. The TGI (TK-10 renal) was greater than 100 µM, the TGI (KM12 colon) was greater than 100 µM and the TGI (NCI-H460 lung) was greater than 100 µM. The TGI (SF-268 CNS) was greater than 100 µM, the TGI (HCC-2998 colon) was greater than 100 µM and the TGI (RPMI-8226 leukemia) was greater than 100 µM. For the same compound, the TGI (CAKI-1 renal) was greater than 100 µM, the TGI (U251 CNS) was greater than 100 µM and the TGI (SNB-75 CNS) was greater than 100 µM. For the same compound, the TGI (A549 NSCLC) was greater than 100 µM, the TGI (MDA-N) was greater than 100 µM and the TGI (UO-31 renal) was greater than 100 µM. It also gave a TGI (SK-MEL-28 melanoma) greater than 100 µM, a TGI (RXF 393 renal) greater than 100 µM and a TGI (MALME-3M melanoma) greater than 100 µM. It also gave a TGI (SR leukemia) greater than 100 µM, a TGI (HCT-116 colon) greater than 100 µM and a TGI (EKVX NSCLC) greater than 100 µM.

With `Cc1cc2c(O)c(c1)COCc1cc(C)cc(c1O)COCc1cc(C)cc(c1O)COC2` the TGI (MDA-MB-231 breast) was greater than 100 µM, the TGI (SN12C renal) was greater than 100 µM and the TGI (OVCAR-3 ovarian) was greater than 100 µM. The TGI (MOLT-4 leukemia) was greater than 100 µM, the TGI (CCRF-CEM leukemia) was greater than 100 µM and the TGI (A498 renal) was greater than 100 µM. The TGI (T-47D breast) was greater than 100 µM, the TGI (UACC-62 melanoma) was greater than 100 µM and the TGI (NCI/ADR-RES ovarian) was greater than 100 µM. For the same compound, the TGI (HCT-15 colon) was greater than 100 µM, the TGI (HL-60(TB) leukemia) was greater than 100 µM and the TGI (SF-539 CNS) was greater than 100 µM. The TGI (NCI-H226 lung) was greater than 100 µM, the TGI (MCF7 breast) was greater than 100 µM and the TGI (OVCAR-5 ovarian) was greater than 100 µM. It also gave a TGI (SK-MEL-2 melanoma) greater than 100 µM, a TGI (NCI-H522 lung) greater than 100 µM and a TGI (UACC-257 melanoma) greater than 100 µM. It also gave a TGI (MDA-MB-435) greater than 100 µM, a TGI (BT-549 breast) greater than 100 µM and a TGI (PC-3 prostate) greater than 100 µM. It also gave a TGI (HT29 colon) greater than 100 µM, a TGI (ACHN renal) greater than 100 µM and a TGI (786-0 renal) greater than 100 µM. The TGI (SK-OV-3 ovarian) was greater than 100 µM, the TGI (HOP-62 NSCLC) was greater than 100 µM and the TGI (M14 melanoma) was greater than 100 µM. For the same compound, the TGI (SNB-19 CNS) was greater than 100 µM, the TGI (DU-145 prostate) was greater than 100 µM and the TGI (COLO 205 colon) was greater than 100 µM. The TGI (K-562 leukemia) was greater than 100 µM, the TGI (SW-620 colon) was greater than 100 µM and the TGI (OVCAR-8 ovarian) was greater than 100 µM. For the same compound, the TGI (KM12 colon) was greater than 100 µM, the TGI (HOP-92 NSCLC) was greater than 100 µM and the TGI (NCI-H460 lung) was greater than 100 µM. The TGI (SF-268 CNS) was greater than 100 µM, the TGI (OVCAR-4 ovarian) was greater than 100 µM and the TGI (HCC-2998 colon) was greater than 100 µM. The TGI (RPMI-8226 leukemia) was greater than 100 µM, the TGI (NCI-H23 lung) was greater than 100 µM and the TGI (SF-295 CNS) was greater than 100 µM. It also gave a TGI (CAKI-1 renal) greater than 100 µM, a TGI (U251 CNS) greater than 100 µM and a TGI (SNB-75 CNS) greater than 100 µM. For the same compound, the TGI (A549 NSCLC) was greater than 100 µM, the TGI (MDA-N) was greater than 100 µM and the TGI (UO-31 renal) was greater than 100 µM. For the same compound, the TGI (SK-MEL-28 melanoma) was greater than 100 µM, the TGI (RXF 393 renal) was greater than 100 µM and the TGI (MALME-3M melanoma) was greater than 100 µM. The TGI (SR leukemia) was greater than 100 µM, the TGI (HCT-116 colon) was greater than 100 µM and the TGI (EKVX NSCLC) was greater than 100 µM.

`NC(=S)N/N=C1\CCCCc2ccccc21` gave a TGI (SN12C renal) greater than 10 µM, a TGI (OVCAR-3 ovarian) greater than 10 µM and a TGI (MOLT-4 leukemia) greater than 10 µM. It also gave a TGI (CCRF-CEM leukemia) greater than 10 µM, a TGI (T-47D breast) greater than 10 µM and a TGI (NCI/ADR-RES ovarian) greater than 10 µM. For the same compound, the TGI (HCT-15 colon) was greater than 10 µM, the TGI (HL-60(TB) leukemia) was greater than 10 µM and the TGI (NCI-H226 lung) was greater than 10 µM. For the same compound, the TGI (MCF7 breast) was greater than 10 µM, the TGI (OVCAR-5 ovarian) was greater than 10 µM and the TGI (SK-MEL-2 melanoma) was greater than 10 µM. For the same compound, the TGI (NCI-H522 lung) was greater than 10 µM, the TGI (UACC-257 melanoma) was greater than 10 µM and the TGI (MDA-MB-435) was greater than 10 µM. For the same compound, the TGI (BT-549 breast) was greater than 10 µM, the TGI (PC-3 prostate) was greater than 10 µM and the TGI (HT29 colon) was greater than 10 µM. For the same compound, the TGI (ACHN renal) was greater than 10 µM, the TGI (786-0 renal) was greater than 10 µM and the TGI (HOP-62 NSCLC) was greater than 10 µM. The TGI (M14 melanoma) was greater than 10 µM, the TGI (SNB-19 CNS) was greater than 10 µM and the TGI (DU-145 prostate) was greater than 10 µM. For the same compound, the TGI (COLO 205 colon) was greater than 10 µM, the TGI (K-562 leukemia) was greater than 10 µM and the TGI (SW-620 colon) was greater than 10 µM. The TGI (OVCAR-8 ovarian) was greater than 10 µM, the TGI (TK-10 renal) was greater than 10 µM and the TGI (KM12 colon) was greater than 10 µM. For the same compound, the TGI (NCI-H460 lung) was greater than 10 µM, the TGI (SF-268 CNS) was greater than 10 µM and the TGI (OVCAR-4 ovarian) was greater than 10 µM. It also gave a TGI (HCC-2998 colon) greater than 10 µM, a TGI (RPMI-8226 leukemia) greater than 10 µM and a TGI (NCI-H23 lung) greater than 10 µM. The TGI (SF-295 CNS) was greater than 10 µM, the TGI (CAKI-1 renal) was greater than 10 µM and the TGI (U251 CNS) was greater than 10 µM. It also gave a TGI (A549 NSCLC) greater than 10 µM, a TGI (MDA-N) greater than 10 µM and a TGI (UO-31 renal) greater than 10 µM. It also gave a TGI (RXF 393 renal) greater than 10 µM, a TGI (MALME-3M melanoma) greater than 10 µM and a TGI (SR leukemia) greater than 10 µM. The TGI (HCT-116 colon) was greater than 10 µM and the TGI (EKVX NSCLC) was greater than 10 µM.
